By IC50 is commonly meant the midpoint of a concentration-inhibition curve.

Egl nine homolog 1, sequence (Q9GZT9 whole entry, the tested form may be a part): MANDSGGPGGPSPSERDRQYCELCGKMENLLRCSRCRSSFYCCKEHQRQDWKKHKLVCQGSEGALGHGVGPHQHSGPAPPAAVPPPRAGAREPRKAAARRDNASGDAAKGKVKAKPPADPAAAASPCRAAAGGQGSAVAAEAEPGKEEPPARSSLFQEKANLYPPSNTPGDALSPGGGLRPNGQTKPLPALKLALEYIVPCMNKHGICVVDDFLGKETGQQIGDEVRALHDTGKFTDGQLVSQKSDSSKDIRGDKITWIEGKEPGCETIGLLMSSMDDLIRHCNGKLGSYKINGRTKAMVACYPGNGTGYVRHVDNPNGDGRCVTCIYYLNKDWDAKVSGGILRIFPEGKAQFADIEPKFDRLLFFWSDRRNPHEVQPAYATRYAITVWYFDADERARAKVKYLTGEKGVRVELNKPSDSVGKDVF

This assay concerns the target Egl nine homolog 1 (Homo sapiens, UniProt Q9GZT9). In words: Inhibition Assay: The IC50 values for the PHD2 enzyme (residues 181-417) were determined by mixing increasing amounts of inhibitor with a fixed amount of enzyme (5 nM, final concentration) and Biotin labeled peptide (Biotin-Asp-Leu-Glu-Met-Leu-Ala-Pro-Tyr-Ile-Pro-Met-Asp-Asp-Asp-Phe-Gln-Leu, 1 uM final concentration) and 2-Oxyglutarate (2 uM final concentration) in 50 mM HEPES, 50 mM KCl, 0.5 mM TCEP, 2 uM FeCl2, 0.1 mg/ml BSA, at pH 7.3. The reaction was conducted by pre-incubating the enzyme in the presence of inhibitor for 60 min at room temperature. The activity of the free enzyme was measured by adding the peptide, the 2-Oxoglutarate (see above for final concentrations), and Ascorbic Acid (1 mM final concentration). The enzymatic activity was quenched after 60 min by adding an excess of a tight binding inhibitor to the assay mixture. The amount of product released was measured by using a LC/MS system (Agilent HPLC with Applied Biosystems API3000 Mass Spectrometer).
In the case of `CCN1CCC(NC(=O)c2ccc(-n3ncc(-c4ccnc(OC)c4)c3O)nc2)CC1`, the IC50 was 77.6 nM. The result for `COc1cc(-c2cnn(-c3ccc(C(=O)NCCCN4CCCC4)cn3)c2O)ccn1` reads 97.7 nM. `CCN1CCC(CN(C)C(=O)c2ccc(-n3ncc(-c4ccc(C#N)cc4)c3O)nc2)C1` (stereo unspecified): the IC50 was found to be 56.2 nM. `COc1cc(-c2cnn(-c3ccc(C(=O)NCCCN4CCCC4=O)cn3)c2O)ccn1`: the IC50 was 51.3 nM. Regarding `COc1cc(-c2cnn(-c3ccc(C(=O)NCCC4CCCN4C)cn3)c2O)ccn1` (stereo unspecified), the IC50 was found to be 126 nM. The result for `CN1CCC(NC(=O)c2ccc(-n3ncc(-c4ccc(C#N)cc4)c3O)nc2)CC1=O` (stereo unspecified) reads 129 nM; that for `CC(C)(C)NC(=O)c1ccc(-n2ncc(-c3cccnc3)c2O)nc1`, 10 nM. For the compound `COCCNC(=O)c1cnc(-n2ncc(-c3ccc(C#N)cc3)c2O)cc1C`, the IC50 stood at 97.7 nM. For `COc1cc(C#N)ccc1-c1cnn(-c2ccc(C(=O)NCCC3CCCO3)cn2)c1O` (stereo unspecified), the IC50 is 66.1 nM. The result for `COc1cc(-c2cnn(-c3ccc(C(=O)NCCCn4ccnc4)cn3)c2O)ccn1` reads 37.2 nM. The same measure for `COc1cc(-c2cnn(-c3ccc(C(=O)NCCCN4CCCCC4)cn3)c2O)ccn1`: 87.1 nM.
